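Here, GI50 denotes the concentration required for 50% inhibition of growth. At the TGI there is no net growth.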
Experiments:
Experiment in all cases: NCI-60 cell line screen, 384-well format
SK-MEL-28 melanoma = test system: SK-MEL-28 melanoma
NCI-H522 lung = test system: NCI-H522 lung
IGROV1 ovarian = test system: IGROV1 ovarian
SNB-75 CNS = test system: SNB-75 CNS
NCI-H322M lung = test system: NCI-H322M lung
RXF 393 renal = test system: RXF 393 renal
SR leukemia = test system: SR leukemia
BT-549 breast = test system: BT-549 breast
UACC-62 melanoma = test system: UACC-62 melanoma
SF-539 CNS = test system: SF-539 CNS
MDA-MB-468 breast = test system: MDA-MB-468 breast
HT29 colon = test system: HT29 colon
M14 melanoma = test system: M14 melanoma
NCI/ADR-RES ovarian = test system: NCI/ADR-RES ovarian
MCF7 breast = test system: MCF7 breast
OVCAR-3 ovarian = test system: OVCAR-3 ovarian
T-47D breast = test system: T-47D breast
UACC-257 melanoma = test system: UACC-257 melanoma
DU-145 prostate = test system: DU-145 prostate
U251 glioblastoma = test system: U251 glioblastoma
A549 NSCLC = test system: A549 NSCLC
SF-295 CNS = test system: SF-295 CNS
HL-60(TB) leukemia = test system: HL-60(TB) leukemia
MDA-MB-435 melanoma = test system: MDA-MB-435 melanoma
NCI-H226 lung = test system: NCI-H226 lung
LOX IMVI melanoma = test system: LOX IMVI melanoma
MOLT-4 leukemia = test system: MOLT-4 leukemia
TK-10 renal = test system: TK-10 renal
786-0 renal = test system: 786-0 renal
PC-3 prostate = test system: PC-3 prostate
HCC-2998 colon = test system: HCC-2998 colon
ACHN renal = test system: ACHN renal
EKVX NSCLC = test system: EKVX NSCLC
OVCAR-8 ovarian = test system: OVCAR-8 ovarian
KM12 colon = test system: KM12 colon
UO-31 renal = test system: UO-31 renal
NCI-H460 NSCLC = test system: NCI-H460 NSCLC
OVCAR-4 ovarian = test system: OVCAR-4 ovarian
SK-MEL-5 melanoma = test system: SK-MEL-5 melanoma
NCI-H23 lung = test system: NCI-H23 lung
HCT-116 colon = test system: HCT-116 colon
SF-268 CNS = test system: SF-268 CNS
A498 renal = test system: A498 renal
HS 578T breast = test system: HS 578T breast
K-562 leukemia = test system: K-562 leukemia
HOP-62 NSCLC = test system: HOP-62 NSCLC
SN12C renal = test system: SN12C renal
CAKI-1 renal = test system: CAKI-1 renal
SK-OV-3 ovarian = test system: SK-OV-3 ovarian
HCT-15 colon = test system: HCT-15 colon
MDA-MB-231 breast = test system: MDA-MB-231 breast
SNB-19 CNS = test system: SNB-19 CNS
SW-620 colon = test system: SW-620 colon
CCRF-CEM leukemia = test system: CCRF-CEM leukemia
COLO 205 colon = test system: COLO 205 colon
MALME-3M melanoma = test system: MALME-3M melanoma
RPMI-8226 leukemia = test system: RPMI-8226 leukemia
HOP-92 NSCLC = test system: HOP-92 NSCLC

NC(=O)c1ccc2nc(-c3ccc(C4(N)CCC4)cc3)c(-c3ccccc3)n2n1
GI50 (SK-MEL-28 melanoma): 6.42 µM | TGI (SK-MEL-28 melanoma): 20.2 µM | GI50 (NCI-H522 lung): 13.7 µM | TGI (NCI-H522 lung): 26.6 µM | GI50 (IGROV1 ovarian): 0.25 µM | TGI (IGROV1 ovarian): 11.7 µM | GI50 (SNB-75 CNS): 1.25 µM | TGI (SNB-75 CNS): 14.6 µM | GI50 (NCI-H322M lung): 9.27 µM | TGI (NCI-H322M lung): 21.6 µM | GI50 (RXF 393 renal): 1.6 µM | TGI (RXF 393 renal): 10.7 µM | GI50 (SR leukemia): 0.23 µM | TGI (SR leukemia): 0.99 µM | GI50 (BT-549 breast): 2.01 µM | TGI (BT-549 breast): 15.2 µM | GI50 (UACC-62 melanoma): 3.01 µM | TGI (UACC-62 melanoma): 16.4 µM | GI50 (SF-539 CNS): 3.59 µM | TGI (SF-539 CNS): 16.6 µM | GI50 (MDA-MB-468 breast): 0.125 µM | TGI (MDA-MB-468 breast): 8.31 µM | GI50 (HT29 colon): 2.62 µM | TGI (HT29 colon): 17.9 µM | GI50 (M14 melanoma): 12.8 µM | TGI (M14 melanoma): 25.5 µM | GI50 (NCI/ADR-RES ovarian): 15.3 µM | TGI (NCI/ADR-RES ovarian): 29.3 µM | GI50 (MCF7 breast): 0.125 µM | TGI (MCF7 breast): 12.4 µM | GI50 (OVCAR-3 ovarian): 0.683 µM | TGI (OVCAR-3 ovarian): 18 µM | GI50 (T-47D breast): 0.0282 µM | TGI (T-47D breast): 2.99 µM | GI50 (UACC-257 melanoma): 11.3 µM | TGI (UACC-257 melanoma): 23.4 µM | GI50 (DU-145 prostate): 11.8 µM | TGI (DU-145 prostate): 24.6 µM | GI50 (U251 glioblastoma): 10.4 µM | TGI (U251 glioblastoma): 22.2 µM | GI50 (A549 NSCLC): 5.31 µM | TGI (A549 NSCLC): 18.6 µM | GI50 (SF-295 CNS): 0.944 µM | TGI (SF-295 CNS): 11 µM | GI50 (HL-60(TB) leukemia): 4.26 µM | TGI (HL-60(TB) leukemia): 17 µM | GI50 (MDA-MB-435 melanoma): 12.6 µM | TGI (MDA-MB-435 melanoma): 25.2 µM | GI50 (NCI-H226 lung): 8.96 µM | TGI (NCI-H226 lung): 21.5 µM | GI50 (LOX IMVI melanoma): 8.43 µM | TGI (LOX IMVI melanoma): 20.7 µM | GI50 (MOLT-4 leukemia): 0.305 µM | TGI (MOLT-4 leukemia): 1.93 µM | GI50 (TK-10 renal): 5.7 µM | TGI (TK-10 renal): 20.5 µM | GI50 ([…]-0 renal): 2.22 µM | TGI (786-0 renal): 13.6 µM | GI50 (PC-3 prostate): 0.25 µM | TGI (PC-3 prostate): 12.8 µM | GI50 (HCC-2998 colon): 11.2 µM | TGI (HCC-2998 colon): 23.2 µM | GI50 (ACHN renal): 11.2 µM | TGI (ACHN renal): 23.3 µM | GI50 (EKVX NSCLC): 5.35 µM | TGI (EKVX NSCLC): 20.3 µM | GI50 (OVCAR-8 ovarian): 12.8 µM | TGI (OVCAR-8 ovarian): 25.5 µM | GI50 (KM12 colon): 7.11 µM | TGI (KM12 colon): 20.4 µM | GI50 (UO-31 renal): 2.91 µM | TGI (UO-31 renal): 16 µM | GI50 (NCI-H460 NSCLC): 1.13 µM | TGI (NCI-H460 NSCLC): 15.8 µM | GI50 (OVCAR-4 ovarian): 14.6 µM | TGI (OVCAR-4 ovarian): 28.2 µM | GI50 (SK-MEL-5 melanoma): 3.81 µM | TGI (SK-MEL-5 melanoma): 16.3 µM | GI50 (NCI-H23 lung): 4.85 µM | TGI (NCI-H23 lung): 17.5 µM | GI50 (HCT-116 colon): 5.69 µM | TGI (HCT-116 colon): 18.9 µM | GI50 (SF-268 CNS): 12.3 µM | TGI (SF-268 CNS): 24.8 µM | GI50 (A498 renal): 0.389 µM | TGI (A498 renal): 10.6 µM | GI50 (HS 578T breast): 1.78 µM | TGI (HS 578T breast): 11.8 µM | GI50 (K-562 leukemia): 4.2 µM | TGI (K-562 leukemia): 16.2 µM | GI50 (HOP-62 NSCLC): 12.1 µM | TGI (HOP-62 NSCLC): 24.5 µM | GI50 (SN12C renal): 8.08 µM | TGI (SN12C renal): 20.9 µM | GI50 (CAKI-1 renal): 2.54 µM | TGI (CAKI-1 renal): 16.8 µM | GI50 (SK-OV-3 ovarian): 0.538 µM | TGI (SK-OV-3 ovarian): 12.7 µM | GI50 (HCT-15 colon): 11.9 µM | TGI (HCT-15 colon): 24.4 µM | GI50 (MDA-MB-231 breast): 11.4 µM | TGI (MDA-MB-231 breast): 23.7 µM | GI50 (SNB-19 CNS): 13 µM | TGI (SNB-19 CNS): 25.9 µM | GI50 (SW-620 colon): 15.8 µM | TGI (SW-620 colon): 29.3 µM | GI50 (CCRF-CEM leukemia): 0.498 µM | TGI (CCRF-CEM leukemia): 10.7 µM | GI50 (COLO 205 colon): 2.28 µM | TGI (COLO 205 colon): 16.9 µM | GI50 (MALME-3M melanoma): 2.14 µM | TGI (MALME-3M melanoma): 17.1 µM | GI50 (RPMI-8226 leukemia): 2.39 µM | TGI (RPMI-8226 leukemia): 10.3 µM | GI50 (HOP-92 NSCLC): 5.02 µM | TGI (HOP-92 NSCLC): 18.7 µM
